Values of other authors in US20240335532A1, “NANOPARTICULATE FORMULATION” (NewImmune II, LLC, priority 2021, published 2024).
Where two headings read alike, the source gives them in different places.

How the values were obtained:
[1] = tested on: influenza; conditions: 50 μg intraperitoneally, with influenza vaccine, mice
[2] = single subcutaneous dose, rats
[3] = intravenous 0.5 to 5.0 mg/kg, dogs
[4] = intravenous 2 mg/kg/day, gestational Days 6-18, pregnant rabbits
[5] = 2000 and 5000 mg/kg under occlusion, rabbits
[6] = 30 mg subcutaneous dose, healthy human volunteers
[7] = tested on: influenza; conditions: topical pre-treatment, young and elderly individuals
[8] = dermal exposure, mice
[9] = mice
[10] = rats
[11] = monkeys

In the case of `CC(C)Cn1cnc2c(N)nc3ccccc3c21` [imiquimod, 1-(2-methylpropyl)imidazo[4,5-c]quinolin-4-amine], the “pH of maximum solubility in aqueous solution” value (Britton-Robinson buffer) is listed as no more than 2, the aqueous solubility (above pH 6) is listed as “only sparingly soluble” and the “solubility in aqueous solution” value (physiological pH) is listed as “very low solubility”. The “humoral immune responses against the virus” value [1] was “significantly expedited and augmented”, the “protection against early lethal viral challenges” value [1] was “conferred significant protection” and the subcutaneous lethal dose [2] was 20 mg/kg. The “cardiovascular and nervous system effects” value [3] was “produced cardiac stimulation, central nervous system stimulation and some evidence of autonomic nervous system inhibition”, the “embryofetal toxicity or teratogenicity” value [4] was “No treatment related effects” and the dermal toxicity [5] was “no deaths and no signs of toxicity other than mild transient erythema at the application site”. The tolerability [6] was “well tolerated”, the “immunogenicity of influenza vaccination” value [7] was “significantly improves the immunogenicity” and the “incidence of tumors or non-neoplastic lesions” value [8] was “no increase”. For the same molecule, the single dose toxicity [9] was “high degree of safety”, the single dose toxicity [10] was “high degree of safety” and the single dose toxicity [11] was “high degree of safety”.
